Test results as given in patent US20230073764A1, “COMPOSITION OF TANNIC ACID AND VITAMIN D AND METHODS OF USE” (Elastogenesis, LLC, priority 2021, published 2023).

Experiments:
human dermal fibroblasts [1] = assay: Immunodetection of elastin in cultured human dermal fibroblasts; assay type: cell-based
Experimental: (§1) Biological effects of tannic acid in the presence of hyaluronic acid or ferulic acid were tested on dermal fibroblasts derived from punch biopsies of healthy skin. All fibroblasts were isolated by allowing migration out of skin explants and passaged by trypsinization. Fibroblasts were maintained in alpha-minimum essential medium supplemented with 20 mM HEPES, 1% antibiotics and antimycotics, 1% L-Glutamate and 2% fetal bovine serum (FBS). Cells were plated ([…] cells/dish) to reach confluency and were cultured for 7 days in the presence or absence of hyaluronic acid (0.1%), ferulic acid ([…]), tannic acid (2 μg/mL), or a combination thereof.
(§2) Cell cultures prepared according to Example 1 maintained in the presence or absence of tannic acid, hyaluronic acid, or ferulic acid were fixed in cold 100% methanol at […] for detection of elastin or in 4% paraformaldehyde at room temperature for detection of collagen I. The multiple parallel cultures were incubated with […] of polyclonal antibody to tropoelastin (Elastin Products, Owensville, Mich.), or polyclonal antibody to collagen type I (Chemicon, Temecula, Calif.). Cultures were incubated with the respective fluorescein-conjugated goat anti-rabbit, goat anti-mouse, or rabbit anti-goat secondary antibodies. Nuclei were counter stained with propidium iodide (Sigma, St. Louis, Mo.). All cultures were examined with a Nikon Eclipse E1000 microscope attached to a cooled CCD camera (QImaging, Retiga EX) and analyzed with the computer-generated morphometric analysis system, in which the Image-Pro Plus software (Media Cybernetics, Silver Springs, Md.) estimates the proportion of areas marked with green fluorescence, in relation to the entire (1 square mm) analyzed field.
Cultured human dermal fibroblasts were grown in the presence or absence of tannic acid at low concentration (2 μg/mL) and high concentration (20 μg/mL). Immunodetection of elastin was performed as described in Example 2.
(§3) Cultured human dermal fibroblasts were grown in the presence of or absence of vitamin D (10^−7 M), tannic acid ([…]), or a combination of vitamin D and tannic acid (2 μg/mL) (FIGS. 2A-2B and FIGS. 3A-3C). Immunodetection of elastin was performed as described above.
Cultured human dermal fibroblasts were grown in the presence of or absence hyaluronic acid (0.1%), tannic acid (2 μg/mL), or a combination of hyaluronic acid (0.1%) and tannic acid (2 μg/mL). Immunodetection of elastin was performed as described above.
Cultured human dermal fibroblasts were grown in the presence or absence of ferulic acid (5 μg/mL), tannic acid (2 μg/mL), or a combination of ferulic acid (5 μg/mL) and tannic acid (2 μg/mL). Immunodetection of elastin and collagen I was performed as described above. Results are shown in FIGS. 5A-5C, and FIGS. 6A-6B for elastin and FIGS. 7A-7C and FIG. 8 for collagen.
Cultured human dermal fibroblasts were grown in the presence or absence of ferulic acid (20 μM), tannic acid (2 μg/mL), or copper sulfate (2 μM). Fibroblasts were also grown in presence of a combination of ferulic acid (20 μM) and copper sulfate (2 μM), a combination of ferulic acid (20 μM) and tannic acid (2 μg/mL), and a combination of tannic acid (2 μg/mL) and copper sulfate (2 μM). Immunodetection of elastin was performed as described above.

human dermal fibroblasts [2] = assay: Immunodetection of collagen I in cultured human dermal fibroblasts; assay type: cell-based; settings: ferulic acid (5 μg/mL) alone
Experimental: as §1
as §2, with “All cultures were examined with a Nikon Eclipse E1000 microscope attached to a cooled CCD camera (QImaging, Retiga EX) and analyzed with the computer-generated morphometric analysis system, in which the Image-Pro Plus software (Media Cybernetics, Silver Springs, Md.) estimates the proportion of areas marked with green fluorescence, in relation to the entire (1 square mm) analyzed field.” left out

[3] = cited from earlier work
fibroblast cultures = assay: Tropoelastin in fibroblast cultures measured using PCR; assay type: cell-based, human; settings: PCR after 18 hours; tannic acid added to cultures that contained vitamin D3
Experimental: FIG. 2A depicts the amount of tropoelastin in fibroblast cultures measured using PCR after 18 hours.
as §3

[4] = tannic acid (2 μg/mL) added to hyaluronic acid (0.1%)
[5] = tannic acid (2 μg/mL) added to vitamin D (10^−7 M)

## O=S(=O)([O-])[O-].[Cu+2] [copper sulfate, reference compound]
Human dermal fibroblasts [1]; copper sulfate (2 μM)
  effect on elastin: little effect on elastin

## COc1cc(/C=C/C(=O)O)ccc1O [ferulic acid]
Human dermal fibroblasts [2]
  concentrations of collagen: minimal effect on concentrations of collagen
Human dermal fibroblasts [1]; ferulic acid (5 μg/mL) alone
  concentrations of elastin: negative effect on concentrations of elastin
Human dermal fibroblasts [1]; ferulic acid (20 μM)
  effect on elastin: leads to a reduction in elastin

## O=C(OC[C@H]1O[C@@H](OC(=O)c2cc(O)c(O)c(OC(=O)c3cc(O)c(O)c(O)c3)c2)[C@H](OC(=O)c2cc(O)c(O)c(OC(=O)c3cc(O)c(O)c(O)c3)c2)[C@@H](OC(=O)c2cc(O)c(O)c(OC(=O)c3cc(O)c(O)c(O)c3)c2)[C@@H]1OC(=O)c1cc(O)c(O)c(OC(=O)c2cc(O)c(O)c(O)c2)c1)c1cc(O)c(O)c(OC(=O)c2cc(O)c(O)c(O)c2)c1 [tannic acid]
[3]
  pKa: about 6
Fibroblast cultures
  amount of tropoelastin: increased the amount of tropoelastin
Human dermal fibroblasts [1]; tannic acid (2 μg/mL) added to ferulic acid (5 μg/mL)
  production of elastin: improved production of elastin even in the presence of ferulic acid
Human dermal fibroblasts [1]; [4]
  elastin fiber formation: abolished the inhibitory effect of hyaluronic acid on elastin fiber formation
  net deposition of elastin: caused an improvement in net deposition of elastin
Human dermal fibroblasts [1]; [5]
  elastin fiber formation: abolished the inhibitory effect of vitamin D on elastin fiber formation
  net deposition of elastin: caused an improvement in net deposition of elastin
Human dermal fibroblasts [1]; tannic acid at high concentration (20 μg/mL)
  elastin concentration: caused elastosis
Human dermal fibroblasts [1]; tannic acid at low concentration (2 μg/mL), compared to high concentration
  elastin concentration: improved elastin concentration

## hyaluronic acid
Human dermal fibroblasts [1]; hyaluronic acid (0.1%) alone
  elastin production: causes inhibition of elastin production

## vitamin D [reference compound]
Human dermal fibroblasts [1]; vitamin D (10^−7 M) alone
  elastin production: causes inhibition of elastin production
